Measured values published in ChEMBL document CHEMBL1130072, “Probing the active sites of monoamine oxidase A and B with 1,4-disubstituted tetrahydropyridine substrates and inactivators” (J Med Chem, 1997).

What was measured:
[1] = target: T1, Amine oxidase [flavin-containing] B (Homo sapiens, UniProt P27338); assay: Vmax/Km values for MAO-B; parameters: unit not given here
T1 sequence (P27338 whole entry): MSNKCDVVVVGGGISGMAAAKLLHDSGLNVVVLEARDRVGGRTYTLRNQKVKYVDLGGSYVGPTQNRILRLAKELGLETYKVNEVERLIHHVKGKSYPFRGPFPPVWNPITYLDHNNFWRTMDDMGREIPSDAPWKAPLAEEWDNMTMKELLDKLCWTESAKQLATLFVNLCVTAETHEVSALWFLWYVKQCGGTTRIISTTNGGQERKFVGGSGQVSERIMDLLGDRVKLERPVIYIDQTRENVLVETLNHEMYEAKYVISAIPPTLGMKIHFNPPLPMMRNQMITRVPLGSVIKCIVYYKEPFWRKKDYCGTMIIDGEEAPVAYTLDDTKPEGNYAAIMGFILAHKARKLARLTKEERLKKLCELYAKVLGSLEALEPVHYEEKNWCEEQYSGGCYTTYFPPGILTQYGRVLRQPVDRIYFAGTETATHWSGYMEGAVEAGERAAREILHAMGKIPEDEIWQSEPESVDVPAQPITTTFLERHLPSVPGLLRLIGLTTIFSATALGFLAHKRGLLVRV

[2] = target: T2, Amine oxidase [flavin-containing] A (Homo sapiens, UniProt P21397); assay: Tested for Km, the substrate concentration with gives half maximum velocity of the monoamine oxidase A catalyzed oxidation; NSD = no substrate properties detected
T2 sequence (P21397 whole entry): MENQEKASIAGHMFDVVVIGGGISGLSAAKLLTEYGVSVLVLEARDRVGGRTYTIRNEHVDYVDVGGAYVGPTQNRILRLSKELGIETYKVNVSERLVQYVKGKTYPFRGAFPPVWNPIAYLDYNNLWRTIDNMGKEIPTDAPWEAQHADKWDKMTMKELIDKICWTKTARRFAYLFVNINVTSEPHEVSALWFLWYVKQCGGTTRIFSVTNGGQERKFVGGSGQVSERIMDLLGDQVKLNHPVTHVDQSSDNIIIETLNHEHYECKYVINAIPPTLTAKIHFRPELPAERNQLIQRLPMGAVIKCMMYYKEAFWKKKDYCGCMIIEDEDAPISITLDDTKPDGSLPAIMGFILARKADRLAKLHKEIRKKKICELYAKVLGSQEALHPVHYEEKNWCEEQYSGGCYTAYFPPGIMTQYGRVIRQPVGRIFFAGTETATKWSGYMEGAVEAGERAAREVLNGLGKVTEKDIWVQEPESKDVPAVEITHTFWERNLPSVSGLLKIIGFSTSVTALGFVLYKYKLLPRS

[3] = target: T3, Amine oxidase [flavin-containing] B (Bos taurus, UniProt P56560); assay: Tested for maximum velocity of monoamine oxidase B catalyzed oxidation; parameters: unit not given here
T3 sequence (P56560 whole entry): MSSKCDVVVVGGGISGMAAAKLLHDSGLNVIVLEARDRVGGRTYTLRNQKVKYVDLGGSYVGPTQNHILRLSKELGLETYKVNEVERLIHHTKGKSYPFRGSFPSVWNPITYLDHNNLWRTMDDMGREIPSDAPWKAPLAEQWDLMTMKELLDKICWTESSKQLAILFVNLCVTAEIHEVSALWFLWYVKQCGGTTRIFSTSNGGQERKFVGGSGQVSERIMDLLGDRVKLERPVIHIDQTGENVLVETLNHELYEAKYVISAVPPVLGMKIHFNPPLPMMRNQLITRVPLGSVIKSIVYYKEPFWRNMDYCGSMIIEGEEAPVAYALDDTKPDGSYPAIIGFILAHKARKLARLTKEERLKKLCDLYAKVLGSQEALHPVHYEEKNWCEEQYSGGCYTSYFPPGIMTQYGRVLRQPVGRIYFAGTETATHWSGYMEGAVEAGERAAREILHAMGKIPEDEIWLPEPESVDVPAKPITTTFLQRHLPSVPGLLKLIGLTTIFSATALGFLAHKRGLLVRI

[4] = target: T3, Amine oxidase [flavin-containing] B; assay: Tested for Kinetic data against the monoamine oxidase B catalyzed oxidation.
[5] = target: T2, Amine oxidase [flavin-containing] A; assay: Tested for maximum velocity of monoamine oxidase A catalyzed oxidation; parameters: unit not given here
[6] = target: T2, Amine oxidase [flavin-containing] A; assay: Vmax/Km values for MAO-A; parameters: unit not given here
Monoamine oxidase = target: T4, Monoamine oxidase (Homo sapiens, UniProt P21397+P27338); assay: Selectivity Coefficient measured as ratio of Vmax/Km value of MAO-B to that of MAO-A; format: protein assay
T4 sequence (P21397 whole entry): T2 sequence (P21397 whole entry)
T4 sequence (P27338 whole entry): T1 sequence (P27338 whole entry)

[7] = target: T2, Amine oxidase [flavin-containing] A; assay: Tested for Kinetic data against the monoamine oxidase A catalyzed oxidation.
[8] = target: T2, Amine oxidase [flavin-containing] A; assay: Tested for Kinetic data against the monoamine oxidase A catalyzed oxidation;NSD = No substrate properties detected
[9] = target: T3, Amine oxidase [flavin-containing] B; assay: Tested for Km, the substrate concentration with gives half maximum velocity of the monoamine oxidase B catalyzed oxidation; NSD = no substrate properties detected
[10] = target: T3, Amine oxidase [flavin-containing] B; assay: Tested for inhibition- binding affinity against monoamine oxidase B catalyzed oxidation; NID = no inactivation properties detected.
[11] = target: T2, Amine oxidase [flavin-containing] A; assay: Tested for inhibition- binding affinity against monoamine oxidase A catalyzed oxidation; NID = no inactivation properties detected.

Structure (SMILES)	Ratio [1]	Vmax [3]	Vmax / Km [4]	Selectivity coefficient (Monoamine oxidase)	Vmax / Km [7]	also measured
CN1CC=C(c2cccc(-c3ccccc3)c2)CC1	157	153	–	–	–	Km [2]: No substrate detected
CN1CC=C(c2c[nH]c3ccccc23)CC1.O=C(O)C(=O)O	–	358	6620 M⁻¹ s⁻¹	–	–	–
CN1CC=C(c2ccccc2)CC1	523	204	–	3.65	–	Vmax [5]: 20; Ratio [6]: 143
CC(C)c1ccccc1C1=CCN(C)CC1	–	–	850 M⁻¹ s⁻¹	0.05	18700 M⁻¹ s⁻¹	–
COc1cccc(C2=CCN(C)CC2)c1	–	–	15600 M⁻¹ s⁻¹	–	–	Vmax / Km [8]: No substrate detected
CN1CC=C(c2cccc(Oc3ccccc3)c2)CC1	–	–	–	–	92800 M⁻¹ s⁻¹	–
CN1CC=C(c2ccc(-c3ccccc3)cc2)CC1	–	–	–	–	–	Km [9]: No substrate detected; Km [2]: No substrate detected
C1=C(c2ccccc2-c2ccccc2)CCN(C2CC2)C1	–	–	–	–	–	Ki [10]: No inhibition
C1=C(c2ccc(-c3ccccc3)cc2)CCN(C2CC2)C1	–	–	–	–	–	Ki [11]: No inhibition
CN1CC=C(c2ccc3ccccc3c2)CC1	71	42	–	–	–	Vmax [5]: 204; Ratio [6]: 443
CN1CC=C(c2ccccc2-c2ccccc2)CC1	12	20	–	–	–	Vmax [5]: 107; Ratio [6]: 892
Cc1cccc(C2=CCN(C)CC2)c1	–	–	10800 M⁻¹ s⁻¹	8.5	1270 M⁻¹ s⁻¹	–
Cc1ccccc1C1=CCN(C)CC1	–	–	21470 M⁻¹ s⁻¹	2.19	9800 M⁻¹ s⁻¹	–
CN1CC=C(c2cccc3ccccc23)CC1	364	51	–	–	–	Vmax [5]: 526; Ratio [6]: 862
CCc1ccccc1C1=CCN(C)CC1	–	–	4920 M⁻¹ s⁻¹	0.43	11500 M⁻¹ s⁻¹	–
